Data on 1 molecule can be found in US9427433B2, “Methods and compositions for enhancing fertility and/or inhibiting pregnancy failure and restoring glucose tolerance” (Queen's University at Kingston, priority 2011, dated 2016).

For experiment [1], the system named is female NZO mice fed a continuous high fat diet. Briefly: Weight loss, comparison of macrolides. The format is in vivo, mouse. The conditions noted are these: tacrolimus 0.05 or 0.1 mg/kg, pimecrolimus 0.1 mg/kg, sirolimus 0.1 mg/kg s.c. every other day for three weeks; vs vehicle. From the text: (§1) For the comparative evaluation of other macrolide drugs to tacrolimus, mice starting at 7 weeks of age were maintained on the high fat diet for a total of 13 weeks of study period. Mice were entered into the experiments when determined to be glucose intolerant as described above. Methods of drug administration and other experimental methods were as described above.

A further experiment relates to IFN-γ mRNA. Briefly: Decidual/placental IFN-γ mRNA levels. The format is in vivo, mouse. The conditions noted are these: mid- to late pregnancy; NOD mice, 1 or 0.1 mg/kg q2d for three weeks with or without 10 mg/kg loading dose. How it is done: In these studies, pregnancy progression and the glycemic control of mice treated with tacrolimus were examined. In an initial set of experiments, a loading dose of 10 mg/kg was initially administered to mice at the pre-diabetic stage followed by a maintenance dose of 1 or 0.1 mg/kg every other day (q2d) for three weeks after the last injection of which animals were allowed to mate and get pregnant. In an additional set of experiments mice were injected every other day with either 1 or 0.1 mg/kg dose for three weeks during the pre-diabetic stage and after the last injection of which mice were mated and examined for the progress of their pregnancy. Ultrasonic, vascular resistance index measurements, morphologic analyses were conducted on immunosuppressed and control NOD dams and their gestational uterine samples throughout pregnancy. Uterine, decidual and placental IFN-γ mRNA levels were also measured. Immunosuppressed NOD mice achieved and maintained normal glucose homeostasis with normal pregnancy pattern and a higher rate of viably implanted embryos and fetuses having normal phenotypic appearance. Placentae of NOD mice treated with tacrolimus were more deciduomatous, and the integrity of the stem, anchoring and branching placental villi were maintained. […]

For a further experiment, the system named is NOD, NZO and DIO mice. Briefly: Still births, malformations and live births of near-term pups. In kind it is in vivo, mouse. The source says: FIGS. 13A through 13G show results of short term administration of tacrolimus reducing the rates of stillbirths and malformations associated with the diabetic gestation and restoration of normal term pregnancy with high rate of live births in the treated diabetic and obese mice. Numbers and external morphological features of near term (Gd.16.5) pups delivered to tacrolimus-treated versus those delivered to vehicle-treated diabetic and their normoglycemic control mice are depicted in FIGS. 13A through 13C, respectively. Fetal viability rates and external features of pups delivered to diabetic and obese mice with those of the tacrolimus-treated obese and type 2 diabetic mice are depicted in FIGS. 13D and 13E, respectively. Graph bars of FIGS. 13F and 13G display figure statistics.
The successful use of tacrolimus in reducing still birth rates and preventing fetal malformations in the diabetic and obese mice is supportive of the etiological role for IFN-γ in the pathophysiology of fetal loss in diabetes and obese subjects. FIG. 13 provides a comparison between the external morphological features and liver versus still birth rates in near-term (Gd.16.5) pups delivered to tacrolimus-treated NOD (FIG. 13A) versus vehicle-treated diabetic NOD (FIG. 13B) and their normoglycemic control mice (FIG. 13C). […]

Experiment [2] concerns type 2 diabetic NZO and DIO mice. In words: Serum testosterone and luteinizing hormone (PCOS phenotype). The format is in vivo, mouse. As to the method:
Hypertestosteronism (Hyperandrogenism) and low serum levels of Luteinizing hormone (LH) are among the cardinal biochemical features of established PCOS syndrome. […] Serum samples from tacrolimus-treated and saline-injected type 2 diabetic NZO and DIO mice were analyzed for their testosterone and luteinizing hormone (LH) levels in the morning of vaginal plug detection after mating and at 4.5 days later to assess the integrity of their pituitary-ovarian endocrine interactions during successful mating and at embryo implantation.
Twenty NZO and DIO/B6 female mice were maintained on a high fat diet consisted of 60% kcal fat, 20% kcal protein and 20% kcal carbohydrate, with a total energy mass of 5.24 kcal/gm (D12492, Research Diets Inc.; Cedarlane Laboratories, Burlington, Ontario, Canada) starting at 7 weeks of age and maintained on the diet for a total of 12 weeks of study period during which their weekly body weight changes and non-fasting blood glucose values were recorded. Mice which became obese as defined by having a Body mass index (BMI) value of 30, and tested positive for glucose intolerance were selected for an initial treatment episode with tacrolimus after being fed for four weeks with the high fat diet (See FIG. 2). […]

The test system of experiment [3] is high fat fed female NZO mice. Briefly: Ovarian histology of macrolide-treated chronically high fat fed NZO mice. The conditions noted are these: chronically high fat diet fed NZO mice. The format is in vivo, mouse. How it is done: Statistical differences between groups were measured by two-way analysis of variance (ANOVA) followed by Bonferroni post-hock t-test comparing effect of all tested macrolides on mean follicular structure counts/unit area at 95% confidence. Scale bars=200 μm for B, D, F, G, H, I, J and 50 μm for A, C, E. N=10 (HFD-NZO), 6 per treatment group. A, C and E are higher magnifications of B, D and F respectively. * denoting ovarian cyst(s).
as §1

The test system of experiment [4] is patients with type I diabetes. The conditions noted are these: 0.15 mg/kg BID; cited from earlier work.

On to `C=CC[C@@H]1/C=C(\C)C[C@H](C)C[C@H](OC)[C@H]2O[C@@](O)(C(=O)C(=O)N3CCCC[C@H]3C(=O)O[C@H](/C(C)=C/[C@@H]3CC[C@@H](O)[C@H](OC)C3)[C@H](C)[C@@H](O)CC1=O)[C@H](C)C[C@@H]2OC` [tacrolimus], for which the weight loss entry in experiment [1] was “significantly induced weight loss”. Further, the “decidual/placental IFN-γ mRNA” value in the experiment on IFN-γ mRNA is “Lower normal levels of decidual/placental IFN-γ mRNA”. Also, in the experiment on NOD, NZO and DIO mice (near-term (Gd.16.5) pups), the “rates of still births and malformations” value is “reduced the rates of still births and malformations”. For the same molecule, the “term pregnancy and live births” value in the experiment on NOD, NZO and DIO mice (treated diabetic and obese mice) is recorded as “restored normal term pregnancy with high rate of live births”. Besides, the “pituitary-ovarian response and hormonal release to mating” value in experiment [2] (morning of vaginal plug and 4.5 days later) is “restored normal pituitary-ovarian response and hormonal release to mating”. Further, the “development of PCOS phenotype (hypertestosteronism, low serum LH)” value in experiment [2] (short-term administration, high fat diet) is reported as “prevented the development of PCOS phenotype”. For the same molecule, the “follicular growth pattern in the ovaries” value in experiment [3] is “restored follicular growth pattern”. Besides, the ovarian cyst formation entry in experiment [3] (p<0.001) is “inhibited the development of ovarian cysts”. Moreover, the ovarian follicular atresia entry in experiment [3] (vs untreated HFD-NZO) is “significantly inhibited ovarian follicular atresia (p<0.01)”. For the same molecule, the “outcome of clinical study in type I diabetes” value in experiment [4] is recorded as “inconclusive”.
